Assays:
RUP3 = molecular target: T1, RUP3 (Homo sapiens, UniProt Q8TDV5); experiment: RUP3 dose responses in melanophores; assay type: cell-based; details: melanophores transfected with RUP3 expression vector
T1 construct: read from the listing, own knowledge; expressed in transfected cells; host or cells: melanophores, electroporated with the RUP3 expression vector (pCMV)
T1 sequence (Q8TDV5 with tags, fused parts or gaps): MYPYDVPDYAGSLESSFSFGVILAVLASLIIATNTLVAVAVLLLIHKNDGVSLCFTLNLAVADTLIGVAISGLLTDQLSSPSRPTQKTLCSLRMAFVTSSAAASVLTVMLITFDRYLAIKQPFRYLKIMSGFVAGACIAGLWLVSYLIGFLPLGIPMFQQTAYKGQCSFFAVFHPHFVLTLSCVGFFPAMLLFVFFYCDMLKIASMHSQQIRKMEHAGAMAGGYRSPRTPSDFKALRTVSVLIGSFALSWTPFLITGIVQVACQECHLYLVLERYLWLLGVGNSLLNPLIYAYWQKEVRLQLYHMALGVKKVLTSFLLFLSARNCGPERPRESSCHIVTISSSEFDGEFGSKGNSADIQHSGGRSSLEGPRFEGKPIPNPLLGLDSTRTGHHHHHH
Procedure: Protocol for RUP3 Dose Responses in Melanophores
Melanophores are maintained in culture as reported by Potenza, M. N. and Lerner, M. R., in Pigment Cell Research, Vol. 5, 372-378, 1992 and transfected with the RUP3 expression vector (pCMV) using electroporation. Following electroporation, the transfected cells are plated into 96 well plates for the assay. The cells are then allowed to grow for 48 hours in order to both recover from the electroporation procedure and attain maximal receptor expression levels.
On the assay day, the growth medium on the cells is replaced with serum-free buffer containing 10 nM melatonin. The melatonin acts via an endogenous Gi-coupled GPCR in the melanophores to lower intracellular cAMP levels. In response to lowered cAMP levels, the melanophores translocate their pigment to the center of the cell. The net effect of this is a significant decrease in the absorbance reading of the cell monolayer in the well, measured at […].
After a 1-hour incubation in melatonin, the cells become completely pigment-aggregated. At this point a baseline absorbance reading is collected. Serial dilutions of test compounds are then added to the plate and compounds that stimulate RUP3 produce increases in intracellular cAMP levels. In response to these increased cAMP levels, the melanophores translocate their pigment back into the cell periphery. After one hour, stimulated cells are fully pigment-dispersed. The cell monolayer in the dispersed state absorbs much more light in the 600-650 nm range. The measured increase in absorbance compared to the baseline reading allows one to quantitate the degree of receptor stimulation and plot a dose-response curve.
The compounds in the above examples were screened using the melanophore assay.

Male Sprague Dawley rats = experiment: Oral glucose tolerance test (oGTT) in rats; assay type: in vivo; details: rat, p.o.; for Mean % inhibition of glucose excursion: dextrose 2 g/kg, mean of six animals; for Effect on blood glucose after challenge with glucose: result in words
Procedure: In Vivo Effects of RUP3 Agonists on Glucose Homeostasis in Rats
A. Oral Glucose Tolerance Test (oGTT)
Male Sprague Dawley rats weighing approximately 200 g-250 g were fasted for 15 hours and randomly grouped (n=6) to receive a RUP3 agonist (Compounds A194, A214 or D4) at 3, 10 or 30 mg/kg. Compounds were delivered orally via a gavage needle (p.o., volume 3 mL/kg). At time 0, levels of blood glucose were assessed using a glucometer (Elite XL, Bayer), and rats were administered either vehicle (20% hydroxypropyl-beta-cyclodextrin) or test compound. Thirty minutes after administration of test compound, levels of blood glucose were again assessed, and rats were administered dextrose orally at a dose of 2 g/kg. Blood glucose measurements were then taken 30 min, 60 min, and 120 min after this time.

Row | Compound | EC50 (RUP3) | Mean % inhibition of glucose excursion (Male Sprague Dawley rats; dose 10 mg/kg) | Effect on blood glucose after challenge with glucose (Male Sprague Dawley rats) | Mean % inhibition of glucose excursion (Male Sprague Dawley rats; dose 30 mg/kg)
1 | CC(C)OC(=O)N1CCC(Oc2ncnc3c2cnn3-c2ccc(S(C)(=O)=O)cc2)CC1 [Compound A5, 4-[1-(4-Methanesulfonyl-phenyl)-1H-pyrazolo[3,4-d]pyrimidin-4-yloxy]-piperidine-1-carboxylic acid isopropyl ester] | 12.7 nM |  |  | 
2 | CC(C)OC(=O)N1CCC(Sc2ncnc3c2cnn3-c2ccc(S(C)(=O)=O)cc2F)CC1 [Compound A214, 4-[-(2-Fluoro-4-methanesulfonyl-phenyl)-1H-pyrazolo[3,4-d]-pyrimidin-4-ylsulfanyl]-piperidine-1-carboxylic acid isopropyl ester] |  | 33%, (10) | lowered blood glucose after challenge with glucose | 
3 | CC(C)(C)OC(=O)N1CCC(Oc2ncnc3c2nnn3-c2ccc(S(C)(=O)=O)cc2)CC1 [Compound C1, 4-[3-(4-Methanesulfonyl-phenyl)-3H-[1,2,3]triazolo[4,5-d]pyrimidin-7-yloxy]-piperidine-1-carboxylic acid tert-butyl ester] | 13 nM |  |  | 
4 | CC(C)OC(=O)N1CCC(Oc2ncnc3c(-c4ccc(S(C)(=O)=O)cc4)noc23)CC1 [Compound D4, 4-[3-(4-methanesulfonyl-phenyl)-isoxazolo[4,5-d]pyrimidin-7-yloxy]-piperidine-1-carboxylic acid isopropyl ester] |  |  | lowered blood glucose after challenge with glucose | 12%, (30)
5 | CC(C)Oc1ccc(C(=O)N2CCC(Oc3ncnc4c3cnn4-c3ccc(S(C)(=O)=O)cc3F)CC2)nc1 [Compound A194, {4-[1-(2-Fluoro-4-methanesulfonyl-phenyl)-1H-pyrazolo[3,4-d]pyrimidin-4-yloxy]-piperidin-1-yl}-(5-isopropoxy-pyridin-2-yl)-methanone] |  |  | lowered blood glucose after challenge with glucose | 15%, (30)
6 | CC(C)(C)OC(=O)N1CCC(Oc2ncnc3c2ncn3-c2ccc(S(C)(=O)=O)nc2)CC1 [Compound B5, 4-[9-(6-Methanesulfonyl-pyridin-3-yl)-9H-purin-6-yloxy]-piperidine-1-carboxylic acid tert-butyl ester] | 59.1 nM |  |  | 

— patent US8410119B2, “Fused-aryl and heteroaryl derivatives as modulators of metabolism and the prophylaxis and treatment of disorders related thereto” (Arena Pharmaceuticals, Inc., priority 2003, dated 2013)
